What was measured:
PARP1 = PARP1 (Homo sapiens (Human), UniProt P09874); assay: PARP fluorescence anisotropy binding assay, PARP1
Description: Recombinant full length 6HIS tagged PARP1 protein was diluted to 6 nM with 50 mM Tris pH 8, 0.001% Triton X100, 10 mM MgCl2, 150 mM NaCl and incubated for four hours with an equivalent volume of 2 nM fluorescent probe diluted with 50 mM Tris pH 8, 0.001% Triton X100, 10 mM MgCl2, 150 mM NaCl. The final DMSO concentration of the probe was kept below 1% (v/v).

PARP6 = PARP6 (Homo sapiens (Human), UniProt Q2NL67); assay: PARP fluorescence anisotropy binding assay, PARP6
Description: (§1) Recombinant full length GST tagged PARP6 protein was diluted to 160 nM with 50 mM Tris pH 8, 0.001% Triton X100, 10 mM MgCl2, 150 mM NaCl and incubated for four hours with an equivalent volume of 6 nM fluorescent probe diluted with 50 mM Tris pH 8, 0.001% Triton X100, 10 mM MgCI2, 150 mM NaCl. The final DMSO concentration of the probe was kept below 1% (v/v).
Fluorescence anisotropy of the probe when bound to the proteins was measured using a BMG Pherastar FSX® in the presence of test compounds or solvent control and the effect on anisotropy determined. % inhibition values for different test compound concentrations were calculated and fitted to a four parameter logistic plot in order to determine the IC50 value. Where necessary, the compound K, can be determined from the IC50 value using a Munson Rodbard equation defined in Anal Biochem. 1980 Sep. 1; 107(1):220-39 and is based on the known KD of the probe binding to the relevant PARP protein

PARP3 = PARP3 (Homo sapiens (Human), UniProt Q9Y6F1); assay: PARP fluorescence anisotropy binding assay, PARP3
Sequence of PARP3 (Q9Y6F1 whole entry): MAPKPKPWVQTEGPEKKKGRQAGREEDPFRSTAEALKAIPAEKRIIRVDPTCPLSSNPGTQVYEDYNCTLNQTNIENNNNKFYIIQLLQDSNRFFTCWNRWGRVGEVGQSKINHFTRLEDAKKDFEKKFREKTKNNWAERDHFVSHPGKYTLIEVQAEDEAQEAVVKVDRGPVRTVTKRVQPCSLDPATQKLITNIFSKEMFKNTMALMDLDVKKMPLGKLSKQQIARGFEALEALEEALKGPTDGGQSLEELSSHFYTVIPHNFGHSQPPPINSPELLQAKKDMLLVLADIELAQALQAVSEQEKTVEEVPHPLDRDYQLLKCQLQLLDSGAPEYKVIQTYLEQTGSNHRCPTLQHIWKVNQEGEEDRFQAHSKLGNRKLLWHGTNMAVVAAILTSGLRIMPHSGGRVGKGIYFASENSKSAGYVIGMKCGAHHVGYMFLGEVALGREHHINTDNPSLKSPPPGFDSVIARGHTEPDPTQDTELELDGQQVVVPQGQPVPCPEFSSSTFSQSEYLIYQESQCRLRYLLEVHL
Description: Recombinant full length PARP3 protein was diluted to 100 nM with 50 mM Tris pH 8, 0.001% Triton X100, 10 mM MgCl2, 150 mM NaCl and incubated for four hours with an equivalent volume of 6 nM fluorescent probe diluted with 50 mM Tris pH 8, 0.001% Triton X100, 10 mM MgCl2, 150 mM NaCl. The final DMSO concentration of the probe was kept below 1% (v/v).

PARP5a = PARP5a (Homo sapiens (Human), UniProt O95271); assay: PARP fluorescence anisotropy binding assay, PARP5a
Sequence of PARP5a (O95271 1112-1317): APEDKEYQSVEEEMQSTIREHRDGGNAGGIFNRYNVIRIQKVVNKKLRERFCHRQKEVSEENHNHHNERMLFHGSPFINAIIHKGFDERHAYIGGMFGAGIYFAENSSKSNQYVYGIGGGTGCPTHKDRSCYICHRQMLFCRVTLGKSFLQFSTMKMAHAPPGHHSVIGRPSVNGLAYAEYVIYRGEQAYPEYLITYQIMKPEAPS
Description: Recombinant PARP5a binding domain was diluted to 160 nM with 50 mM Tris pH 8, 0.001% Triton X100, 10 mM MgCl2, 150 mM NaCl and incubated for four hours with an equivalent volume of 6 nM fluorescent probe diluted with 50 mM Tris pH 8, 0.001% Triton X100, 10 mM MgCl2, 150 mM NaCl. The final DMSO concentration of the probe was kept below 1% (v/v).

PARP2 = PARP2 (Homo sapiens (Human), UniProt Q9UGN5); assay: PARP fluorescence anisotropy binding assay, PARP2
Sequence of PARP2 (Q9UGN5 whole entry): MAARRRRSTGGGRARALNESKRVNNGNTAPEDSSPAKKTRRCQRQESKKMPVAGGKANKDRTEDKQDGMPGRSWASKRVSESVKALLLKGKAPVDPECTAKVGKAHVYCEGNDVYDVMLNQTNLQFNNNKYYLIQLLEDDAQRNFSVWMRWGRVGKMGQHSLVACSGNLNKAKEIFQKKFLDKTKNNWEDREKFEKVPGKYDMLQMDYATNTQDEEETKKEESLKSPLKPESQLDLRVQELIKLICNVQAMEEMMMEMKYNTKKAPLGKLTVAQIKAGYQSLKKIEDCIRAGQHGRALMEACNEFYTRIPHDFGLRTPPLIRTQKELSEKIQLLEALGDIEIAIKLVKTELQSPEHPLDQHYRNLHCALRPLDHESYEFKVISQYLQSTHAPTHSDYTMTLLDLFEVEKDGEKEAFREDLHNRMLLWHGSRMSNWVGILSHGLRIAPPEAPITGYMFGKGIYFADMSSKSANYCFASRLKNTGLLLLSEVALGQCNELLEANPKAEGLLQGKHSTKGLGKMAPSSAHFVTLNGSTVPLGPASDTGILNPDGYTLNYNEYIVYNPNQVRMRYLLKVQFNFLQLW
Description: as §1, with “PARP2” for “GST tagged PARP6”, “6” for “160”, “2” for “6”, “MgCl2,” for “MgCI2,”
Fluorescence anisotropy of the probe when bound to the proteins was measured using a BMG Pherastar FSX® in the presence of test compounds or solvent control and the effect on anisotropy determined. % inhibition values for different test compound concentrations were calculated and fitted to a four parameter logistic plot in order to determine the IC50 value.

MDR1 and BCRP = assay: In vitro human transporter efflux (MDCK-MDR1-BCRP); conditions: human, pH 7.4
Description: MDCKII cells expressing MDR1 and BCRP were seeded onto polyethylene membranes in 96-well Transwell insert systems at a density to form a confluent cell monolayer. […] The final percent volume of the organic solvent was less than 1%. Permeation of the test compounds from A to B direction and from B to A direction was determined over a 90-min incubation at 37° C. and 5% CO2 with a relative humidity of 95%. At the end of the incubation, samples from the apical and basolateral side were taken and then precipitated with cold acetonitrile containing internal standard. After centrifugation at 4000 rpm, the supernatant was diluted with 0.1% formic acid aqueous solution and quantified by LC-MS/MS. The integrity of the cell monolayers was confirmed by using the marker Lucifer yellow.
The permeability coefficient (1×10-6 cm/s) was calculated using the following equation
(1) The Efflux Ratio was Calculated Using the Following Equation
Efflux ratio=Papp(B to A)/Papp(A to B)
(2) where dCr/dt is the cumulative concentration of the compound in the receiver chamber as a function of time (in μM/s); Vr is the solution volume in the receiver chamber (0.1 ml on the apical side and 0.3 ml on the basolateral side); A is the surface area for the transport, that is, 0.11 cm2 for the area of the monolayer; and C0 is the initial concentration in the donor chamber (in μM).

Sequence of PARP6 (Q2NL67 whole entry): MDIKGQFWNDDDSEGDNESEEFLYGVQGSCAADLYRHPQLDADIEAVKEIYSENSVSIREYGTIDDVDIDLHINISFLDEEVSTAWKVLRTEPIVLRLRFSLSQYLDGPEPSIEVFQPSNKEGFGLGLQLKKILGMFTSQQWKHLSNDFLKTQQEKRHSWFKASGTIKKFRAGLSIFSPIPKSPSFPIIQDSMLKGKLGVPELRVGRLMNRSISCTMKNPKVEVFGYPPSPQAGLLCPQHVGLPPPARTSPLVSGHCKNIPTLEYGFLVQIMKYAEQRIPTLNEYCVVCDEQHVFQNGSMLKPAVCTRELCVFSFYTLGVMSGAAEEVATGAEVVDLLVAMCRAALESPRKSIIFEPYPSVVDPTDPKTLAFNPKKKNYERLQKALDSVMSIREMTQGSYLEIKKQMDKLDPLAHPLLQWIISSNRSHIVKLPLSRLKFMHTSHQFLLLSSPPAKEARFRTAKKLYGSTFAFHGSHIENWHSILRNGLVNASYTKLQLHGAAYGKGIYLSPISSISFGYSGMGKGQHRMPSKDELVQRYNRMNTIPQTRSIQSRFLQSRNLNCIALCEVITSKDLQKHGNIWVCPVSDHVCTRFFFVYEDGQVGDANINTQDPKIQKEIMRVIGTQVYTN
Sequence of PARP1 (P09874 whole entry): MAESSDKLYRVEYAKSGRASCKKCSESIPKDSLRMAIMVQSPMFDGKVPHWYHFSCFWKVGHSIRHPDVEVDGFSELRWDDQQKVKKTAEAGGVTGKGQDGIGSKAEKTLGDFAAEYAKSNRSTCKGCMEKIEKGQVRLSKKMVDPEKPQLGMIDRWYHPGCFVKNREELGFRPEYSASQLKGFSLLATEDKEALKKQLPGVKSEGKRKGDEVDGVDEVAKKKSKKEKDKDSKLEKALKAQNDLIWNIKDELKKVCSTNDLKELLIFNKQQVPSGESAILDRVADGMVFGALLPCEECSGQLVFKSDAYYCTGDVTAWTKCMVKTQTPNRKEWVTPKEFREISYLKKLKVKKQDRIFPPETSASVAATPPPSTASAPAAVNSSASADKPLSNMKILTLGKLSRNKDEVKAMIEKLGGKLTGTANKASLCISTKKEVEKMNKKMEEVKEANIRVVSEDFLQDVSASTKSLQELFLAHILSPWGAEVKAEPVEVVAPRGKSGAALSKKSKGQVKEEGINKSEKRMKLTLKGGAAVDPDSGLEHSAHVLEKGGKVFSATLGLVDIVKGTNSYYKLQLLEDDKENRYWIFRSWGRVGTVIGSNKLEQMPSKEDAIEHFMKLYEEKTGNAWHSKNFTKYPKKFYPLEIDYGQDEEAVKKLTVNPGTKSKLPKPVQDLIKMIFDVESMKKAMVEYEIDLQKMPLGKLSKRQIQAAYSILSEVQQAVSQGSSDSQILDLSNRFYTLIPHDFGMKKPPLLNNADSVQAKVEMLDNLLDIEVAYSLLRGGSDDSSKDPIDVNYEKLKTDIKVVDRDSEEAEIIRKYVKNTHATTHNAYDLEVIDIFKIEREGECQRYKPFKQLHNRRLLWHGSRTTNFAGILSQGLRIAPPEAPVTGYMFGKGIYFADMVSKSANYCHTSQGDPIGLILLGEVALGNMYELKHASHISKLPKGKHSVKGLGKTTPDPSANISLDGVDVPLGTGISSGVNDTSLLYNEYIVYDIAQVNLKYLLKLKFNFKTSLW

Row | SMILES | IC50 (PARP1) [µM] | IC50 (PARP6) [µM] | IC50 (PARP3) [µM] | IC50 (PARP5a) [µM] | IC50 (PARP2) [µM] | efflux ratio at 90 min (MDR1 and BCRP)
1 | CNC(=O)c1ccc(N2CCN(Cc3ccc4nc(C(C)(F)F)c(=O)[nH]c4c3F)CC2)c(C)n1 [Example 19, 5-[4-[[2-(1,1-difluoroethyl)-5-fluoro-3-oxo-4H-quinoxalin-6-yl]methyl]piperazin-1-yl]-N,6-dimethyl-pyridine-2-carboxamide] | 0.013 | – | – | – | 40 | 2.4
2 | CNC(=O)c1ccc(N2CCN(Cc3ccc4nc(C(F)F)c(=O)[nH]c4c3F)CC2)c(C)n1 [Example 37, 5-[4-[[2-(difluoromethyl)-5-fluoro-3-oxo-4H-quinoxalin-6-yl]methyl]piperazin-1-yl]-N,6-dimethyl-pyridine-2-carboxamide] | 0.026 | – | – | – | 57 | 5
3 | CNC(=O)c1ccc(N2CCN(Cc3ccc4nc(OC)c(=O)[nH]c4c3F)CC2)cn1 [Example 38, 5-[4-[(5-fluoro-2-methoxy-3-oxo-4H-quinoxalin-6-yl)methyl]piperazin-1-yl]-N-methyl-pyridine-2-carboxamide] | 0.012 | > 100 | > 100 | > 100 | 21 | –
4 | CNC(=O)c1ccc(N2CCN(Cc3ccc4nc(OC)c(=O)[nH]c4c3F)CC2)c(C)n1 [Example 40, 5-[4-[(5-fluoro-2-methoxy-3-oxo-4H-quinoxalin-6-yl)methyl]piperazin-1-yl]-N,6-dimethyl-pyridine-2-carboxamide] | 0.011 | > 100 | > 100 | 13 | > 100 | 2
5 | CNC(=O)c1ccc(N2CCN(Cc3ccc4nc(C(F)(F)F)c(=O)[nH]c4c3F)CC2)c(C)n1 [Example 47, 5-[4-[[5-fluoro-3-oxo-2-(trifluoromethyl)-4H-quinoxalin-6-yl]methyl]piperazin-1-yl]-N,6-dimethyl-pyridine-2-carboxamide] | 0.076 | > 100 | > 100 | > 100 | > 100 | –
6 | CNC(=O)c1ccc(N2CCN(Cc3ccc4nc(C(F)(F)F)c(=O)[nH]c4c3F)CC2)c(F)n1 [Example 48, 6-fluoro-5-[4-[[5-fluoro-3-oxo-2-(trifluoromethyl)-4H-quinoxalin-6-yl]methyl]piperazin-1-yl]-N-methyl-pyridine-2-carboxamide] | 0.039 | > 100 | > 100 | > 100 | 26 | 8.8
7 | CNC(=O)c1ccc(N2CCN(Cc3ccc4nc(C(F)(F)F)c(=O)[nH]c4c3F)CC2)c(Cl)n1 [Example 49, 6-chloro-5-[4-[[5-fluoro-3-oxo-2-(trifluoromethyl)-4H-quinoxalin-6-yl]methyl]piperazin-1-yl]-N-methyl-pyridine-2-carboxamide] | 0.043 | > 100 | > 29 | > 100 | 11 | –

Molecules with a lower IC50 (PARP1), results first:

Row | IC50 (PARP1) [µM] | IC50 (PARP6) [µM] | IC50 (PARP3) [µM] | IC50 (PARP5a) [µM] | IC50 (PARP2) [µM] | efflux ratio at 90 min (MDR1 and BCRP) | SMILES
8 | 0.003 | > 100 | > 100 | > 100 | > 100 | 1.3 | CNC(=O)c1ccc(N2CCN(Cc3ccc4nc(C)c(=O)[nH]c4c3C)CC2)c(Cl)n1 [Example 3, 6-chloro-5-[4-[(2,5-dimethyl-3-oxo-4H-quinoxalin-6-yl)methyl]piperazin-1-yl]-N-methyl-pyridine-2-carboxamide]
9 | 0.004 | – | – | – | – | 0.4 | CCc1nc2ccc(CN3CCN(c4ccc(C(=O)NC)nc4F)CC3)c(Cl)c2[nH]c1=O [Example 9, 5-[4-[(5-chloro-2-ethyl-3-oxo-4H-quinoxalin-6-yl)methyl]piperazin-1-yl]-6-fluoro-N-methyl-pyridine-2-carboxamide]
10 | 0.007 | > 100 | 5.8 | > 100 | > 100 | 1.6 | CNC(=O)c1ccc(N2CCN(Cc3ccc4nc(C)c(=O)[nH]c4c3F)CC2)c(C(F)F)n1 [Example 21, 6-(difluoromethyl)-5-[4-[(5-fluoro-2-methyl-3-oxo-4H-quinoxalin-6-yl)methyl]piperazin-1-yl]-N-methyl-pyridine-2-carboxamide]
11 | 0.006 | > 100 | > 100 | > 100 | > 81 | 1.1 | CCc1nc2ccc(CN3CCN(c4ccc(C(=O)NC)nc4C(F)F)CC3)c(F)c2[nH]c1=O [Example 24, 6-(difluoromethyl)-5-[4-[(2-ethyl-5-fluoro-3-oxo-4H-quinoxalin-6-yl)methyl]piperazin-1-yl]-N-methyl-pyridine-2-carboxamide]
12 | 0.005 | > 100 | > 100 | > 100 | > 100 | 0.8 | CCc1nc2ccc(CN3CCN(c4ccc(C(=O)NC)nc4Cl)CC3)c(F)c2[nH]c1=O [Example 28, 6-chloro-5-[4-[(2-ethyl-5-fluoro-3-oxo-4H-quinoxalin-6-yl)methyl]piperazin-1-yl]-N-methyl-pyridine-2-carboxamide]
13 | 0.006 | > 100 | > 100 | > 100 | > 100 | 1.8 | CNC(=O)c1ccc(N2CCN(Cc3ccc4nc(C)c(=O)[nH]c4c3F)CC2)c(Cl)n1 [Example 30, 6-chloro-5-[4-[(5-fluoro-2-methyl-3-oxo-4H-quinoxalin-6-yl)methyl]piperazin-1-yl]-N-methyl-pyridine-2-carboxamide]
14 | 0.007 | > 100 | > 100 | > 100 | > 100 | – | CNC(=O)c1ccc(N2CCN(Cc3ccc4nc(C)c(=O)[nH]c4c3F)CC2)cn1 [Example 32, 5-[4-[(5-fluoro-2-methyl-3-oxo-4H-quinoxalin-6-yl)methyl]piperazin-1-yl]-N-methyl-pyridine-2-carboxamide]
15 | 0.006 | > 100 | > 100 | > 100 | > 100 | 1.9 | CNC(=O)c1ccc(N2CCN(Cc3ccc4nc(OC)c(=O)[nH]c4c3F)CC2)c(F)n1 [Example 39, 6-fluoro-5-[4-[(5-fluoro-2-methoxy-3-oxo-4H-quinoxalin-6-yl)methyl]piperazin-1-yl]-N-methyl-pyridine-2-carboxamide]
16 | 0.005 | > 100 | > 100 | > 100 | > 100 | 2.4 | CNC(=O)c1ccc(N2CCN(Cc3ccc4nc(OC)c(=O)[nH]c4c3F)CC2)c(Cl)n1 [Example 41, 6-chloro-5-[4-[(5-fluoro-2-methoxy-3-oxo-4H-quinoxalin-6-yl)methyl]piperazin-1-yl]-N-methyl-pyridine-2-carboxamide]
17 | 0.006 | – | – | – | > 100 | 1.5 | CCNC(=O)c1ccc(N2CCN(Cc3ccc4nc(C)c(=O)[nH]c4c3F)CC2)c(F)n1 [Example 45, N-ethyl-6-fluoro-5-[4-[(5-fluoro-2-methyl-3-oxo-4H-quinoxalin-6-yl)methyl]piperazin-1-yl]pyridine-2-carboxamide]

— patent publication US20250082630A1, “METHODS OF TREATING BRAIN TUMOURS AND NEUROBLASTOMAS” (AstraZeneca AB, priority 2021, published 2025)
